molecular target: T1, CRF1 receptors (Homo sapiens, UniProt P34998); test: CRF1 receptor radioligand binding assay ([125I]-oCRF competition, IMR-32 cell membranes); settings: IMR-32 cell membranes, [125I]-oCRF 100 pM; read-out: Ki (CRF-1R)
T1 construct: endogenous in cells; host or cells: IMR-32 cells, transformed with 2.5 µM 5'-bromo-2'-deoxyuridine for 10 days; membrane preparation
T1 sequence (P34998 24-415): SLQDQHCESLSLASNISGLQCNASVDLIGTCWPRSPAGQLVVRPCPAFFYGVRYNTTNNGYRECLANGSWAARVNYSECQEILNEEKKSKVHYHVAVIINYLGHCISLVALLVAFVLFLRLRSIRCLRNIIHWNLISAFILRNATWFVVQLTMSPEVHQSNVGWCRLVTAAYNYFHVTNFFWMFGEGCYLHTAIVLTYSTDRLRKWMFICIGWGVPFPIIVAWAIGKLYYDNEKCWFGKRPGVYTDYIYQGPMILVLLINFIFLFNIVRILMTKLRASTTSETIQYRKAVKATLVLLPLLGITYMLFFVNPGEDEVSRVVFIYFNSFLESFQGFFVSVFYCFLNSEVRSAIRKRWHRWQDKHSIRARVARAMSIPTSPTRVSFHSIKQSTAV
In short: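 Buffer: Tris pH 7.2 with MgCl2, BSA, Triton X-100, aprotinin, leupeptin; reaction stopped with ice-cold wash and filtered. Nonspecific binding set with 10 μM oCRF.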

| Compound | Ki [nM] |
| --- | --- |
| Cc1cc(C)c(-n2c(Cl)cn3c(CN(CCC(F)(F)F)Cc4cccc(F)c4)c(C(F)(F)F)nc23)c(C)c1 [Example 343, [6-Chloro-2-trifluoromethyl-7-(2,4,6-trimethyl-phenyl)-7H-imidazo[1,2-a]imidazol-3-ylmethyl]-(3-fluoro-benzyl)-(3,3,3-trifluoro-propyl)-amine] | < 100 |
| CCCN(CCC)Cc1c(C(F)(F)F)nc2n(-c3c(C)cc(C)cc3C)c(Cl)cn12 [Example 344, [6-Chloro-2-trifluoromethyl-7-(2,4,6-trimethyl-phenyl)-7H-imidazo[1,2-a]imidazol-3-ylmethyl]-dipropyl-amine] | < 100 |
| C=CCN(CC=C)Cc1c(C(F)(F)F)nc2n(-c3c(C)cc(C)cc3C)c(Cl)cn12 [Example 345, Diallyl-[6-chloro-2-trifluoromethyl-7-(2,4,6-trimethyl-phenyl)-7H-imidazo[1,2-a]imidazol-3-ylmethyl]-amine] | < 10 |
| (2,2,3,3,3-Pentafluoro-propyl)-(2,2,2-trifluoro-ethyl)-[2-trifluoromethyl-8-(2,4,6-trimethyl-phenyl)-8H-1,3a,8-triaza-cyclopenta[α]inden-3-ylmethyl]-amine [Example 162] | < 1000 |
| Phenethyl-[2-trifluoromethyl-8-(2,4,6-trimethyl-phenyl)-8H-1,3a,8-triaza-cyclopenta[α]inden-3-ylmethyl]-(3,3,3-trifluoro-propyl)-amine [Example 168] | < 1000 |

The remaining lines, values ahead:

| Ki [nM] | Compound |
| --- | --- |
| < 100 | CCCCN(CC)Cc1c(C(F)(F)F)nc2n(-c3c(C)cc(C)cc3C)c(Cl)cn12 [Example 346, Butyl-[6-chloro-2-trifluoromethyl-7-(2,4,6-trimethyl-phenyl)-7H-imidazo[1,2-a]imidazol-3-ylmethyl]-ethyl-amine] |
| < 10 | Cc1cc(C)c(N2CCCn3c2nc(C(F)(F)F)c3CN2CCCC2Cc2ccccc2)c(C)c1 (stereo not shown) [Example 347, 3-(2-Benzyl-pyrrolidin-1-ylmethyl)-2-trifluoromethyl-8-(2,4,6-trimethyl-phenyl)-5,6,7,8-tetrahydro-imidazo[1,2-a]pyrimidine] |

Reference: patent publication US7125990B2, “Imidazolyl derivatives as corticotropin releasing factor inhibitors” (Bristol-Myers Squibb COmpany, priority 2001, dated 2006)
